According to publication PMC6481325, “Novel N,N-dialkyl cyanocinnamic acids as monocarboxylate transporter 1 and 4 inhibitors” (Oncotarget, 2019):
Read-outs that look alike come from different tables or passages of the source.

Assays:
MCT4 = target: T1, MCT4 (Homo sapiens, UniProt O15427); experiment: L-[14C]-lactate uptake study in MCT4 expressing MDA-MB-231 cells; format: cell-based; conditions: read-out: MCT4 IC50
T1 construct: These cells predominantly express MCT4 as confirmed by Western blot and quantitative PCR analysis; host or cells: MDA-MB-231
T1 sequence (O15427 2-465 limits assumed): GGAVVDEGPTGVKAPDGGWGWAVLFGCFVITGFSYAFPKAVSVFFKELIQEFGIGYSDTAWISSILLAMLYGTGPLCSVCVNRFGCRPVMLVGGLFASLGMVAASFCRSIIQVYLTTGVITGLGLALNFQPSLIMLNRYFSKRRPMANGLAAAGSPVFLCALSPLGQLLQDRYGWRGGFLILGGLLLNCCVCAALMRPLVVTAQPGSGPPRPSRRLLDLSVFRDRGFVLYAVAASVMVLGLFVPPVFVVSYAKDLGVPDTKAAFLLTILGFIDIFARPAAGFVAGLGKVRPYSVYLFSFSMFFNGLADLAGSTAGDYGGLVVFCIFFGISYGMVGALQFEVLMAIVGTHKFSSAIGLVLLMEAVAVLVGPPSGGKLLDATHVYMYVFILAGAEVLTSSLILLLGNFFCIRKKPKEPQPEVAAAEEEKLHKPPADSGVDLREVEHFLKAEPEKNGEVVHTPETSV
T1 sequence (P35613 140-385 partner limits assumed): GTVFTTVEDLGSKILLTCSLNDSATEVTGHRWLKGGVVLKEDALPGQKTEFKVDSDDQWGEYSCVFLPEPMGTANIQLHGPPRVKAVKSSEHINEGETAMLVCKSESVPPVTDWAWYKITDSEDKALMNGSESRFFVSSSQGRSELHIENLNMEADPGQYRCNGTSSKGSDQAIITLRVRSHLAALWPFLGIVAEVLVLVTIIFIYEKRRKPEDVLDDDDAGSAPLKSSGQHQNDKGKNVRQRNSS
Description: In this study, an L-[^14C]-lactate based transport assay was developed by us to quantify MCT4 transport and its inhibition by test compounds. […] For the MCT4 transport assay, the pH of HEPES buffer with L-[^14C]-lactate was adjusted to 7.0 such that lactate influx into the cells was aided by the pH gradient. […] Test compounds were diluted to working concentration in HEPES buffer (140 mM NaCl, 5 mM KCl, 2 mM CaCl2, 2 mM MgCl2, 10 mM HEPES, pH 7.0) containing 3 μM L-[^14C]-lactate (Perkin Elmer) and 2 μM L-lactate. […] HEPES buffer was replaced with 250 μL test solution. After 1 hour, media was replaced with 500 μL ice-cold stop buffer (0.1 mM CHC solution in HBS, pH 7.4) and the plates were placed on ice. Cells were washed twice with ice-cold stop buffer and solubilized using 250 μL of 0.1 M NaOH in 5% Triton-X (Millipore Sigma). A 150 μL aliquot from each well was added to 4 mL EcoLite(+)™ scintillation fluid (MP Biomedicals) and radioactivity was determined by scintillation spectrometry. Inhibition by each test solution was calculated as a percentage of the maximum control uptake. CHC and dimethylsulfoxide (DMSO) were used as controls. […]

[1] = test system: MCT4 expressing MDA-MB-231 cells; experiment: Seahorse XFe96 glycolysis stress test (ECAR), MDA-MB-231; format: cell-based; conditions: 30 μM
Description: In the GST, three parameters namely glycolysis, glycolytic capacity and glycolytic reserve were measured.
Extracellular acidification rates (ECAR) and oxygen consumption rates (OCR) were recorded in real-time for glycolysis stress test (GST) and mitochondrial stress test (MST), respectively, using Agilent Seahorse XFe96® analyzer.

IC50 (MCT4; Figure 1A and text, lactate uptake): 23 nM | IC50 (MCT4; Supplementary Table 1, average ± SEM): 18 ± 8 nM
SMILES: COc1cc(N(c2ccccc2)c2ccccc2)ccc1/C=C(\C#N)C(=O)O [Phenyl (9)]
glycolytic capacity (GST, ECAR) [1]: decreased | glycolytic reserve (GST, ECAR) [1]: completely arrested
